Experimental data: patent US20060069038A1, “Irreversible caspase-3 inhibitors as active site probes” (priority 2003, published 2006)
Where a chain is given by its changes, count along the chain named.

Key:
[1] = target: T1, caspase-3 (Rattus norvegicus, UniProt P55213); experiment: Caspase-3 western blot in cultured rat thymocytes; type: cell-based; details: FIG. 5B
T1 construct: endogenous in cells; host or cells: primary rat thymocytes (Sprague-Dawley), spontaneous apoptosis in culture
T1 sequence (P55213 29-175 limits assumed): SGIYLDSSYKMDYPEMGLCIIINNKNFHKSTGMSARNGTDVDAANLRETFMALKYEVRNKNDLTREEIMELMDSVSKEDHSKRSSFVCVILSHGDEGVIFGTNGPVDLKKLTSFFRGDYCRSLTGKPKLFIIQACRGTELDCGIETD
T1 sequence (P55213 176-277 limits assumed): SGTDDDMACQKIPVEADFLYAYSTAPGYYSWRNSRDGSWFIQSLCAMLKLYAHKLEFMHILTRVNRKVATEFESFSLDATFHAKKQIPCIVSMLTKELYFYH
Method: Rat thymocytes were cultured for 24 hours at a density of 10×10^6 cells/ml in CytoSF4 supplemented with 2 mM L-glutamine and penicillin-streptamycin and the indicated concentration of caspase inhibitors.
Denatured protein extracts in 1× Laemli buffer were resolved through a 18% acrylamide gradient SDS-PAGE gel (Invitrogen) at 30 mA in Tris-Glycine buffer. Samples labeled with [^125I]-M808 were migrated until the dye front reached 0.5 cm above the end of the gel, and acrylamide 1 cm above the dye front was cut out to remove all free [^125I]-M808 and reduce background. The gels were fixed for 45 minutes in a 40% Methanol-10% Acetic acid solution and dried for 90 min at 80° C. before exposure on MS Kodak film with MS intensifying screens. For Western blotting, proteins were transferred onto a […] nitrocellulose membrane (Invitrogen) in Tris-Glycine-20% methanol buffer at 40V for 2 hours. Non-specific protein binding was minimized by incubating the membranes for 1 hour in blocking buffer (5% non-fat milk/TBS/0.1% Tween-20). Anti-caspase-3 (W R280 and MF467) were diluted 2000-fold in blocking buffer and incubated for 1 hour at 25° C. […] Densitometry was performed using a BioRad instrument and QuantityOne software. […]

[2] = target: T2, purified recombinant human caspase-3 (Homo sapiens, UniProt P42574); experiment: Direct [125I]-M808 labeling of purified recombinant human caspase-3; type: binding; details: FIG. 2A lane 1
T2 construct: Active site shared between large and small caspase subunit
T2 sequence (P42574 29-175 limits assumed): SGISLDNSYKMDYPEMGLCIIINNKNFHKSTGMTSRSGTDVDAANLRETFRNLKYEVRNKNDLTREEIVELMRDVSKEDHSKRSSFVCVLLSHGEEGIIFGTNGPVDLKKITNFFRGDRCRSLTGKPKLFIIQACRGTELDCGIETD
T2 sequence (P42574 176-277 limits assumed): T1 sequence (P55213 176-277 limits assumed) with T3V, Q10H, R35K, L50Q, H53D, L77F
Method: The determination of caspase activity by [^125I]-M808 labeling was performed by pre-incubating purified recombinant human caspase-3 with indicated amounts of caspase inhibitor (M791) or vehicle (DMSO), for 1 hour at 25° C. in ICE buffer III (50 mM Hepes-KOH pH 7.0, 0.1% CHAPS, 10% sucrose, 2 mM EDTA), supplemented with 5 mM DTT. [^125I]-M808 was added to a final concentration of 1.25 μM and incubated for 5 min at 25° C. Active caspases in tissue or cell extracts were labeled by incubating 60-80 μg of lysate with [^125I]-M808 for 15 minutes at 25° C. Labeling was stopped by addition of Laemli buffer (2% SDS; 0.35 M O-mercaptoethanol; 50 mM Tris-Cl pH 6.8; 10% glycerol; 0.05% bromophenol blue) and by heating at 95° C. for 5 minutes. Caspase labeling in whole cells was performed as following. NT2 cells were plated in 24-well dishes (50 000 cells/well) in DMEM+10% FBS. The next day, media was replaced by media containing camptothecin (5 μg/ml) and the indicated amounts of caspase inhibitors. The culture media was removed after 5 hours of incubation and replaced by 100 μl of fresh media containing 12.5 nM [^125]-M808. After a 1 h incubation at 37° C., the media was removed, the cells were washed once with PBS and lysed in lysis buffer+25 μM M808. Cellular debris was removed by centrifugation at 13000 rpm for 10 min and boiled at 95° C. in Laemli buffer. […]

Structure (SMILES) | impact on caspase-3 cleavage [1] | labeling of p17 subunit of caspase-3 [2]
CCCCCN(C)CC(=O)[C@H](CC(=O)O)NC(=O)[C@H](CC)n1cc(C(C)(C)C)nc(NCc2nonc2C)c1=O [Example M867, (3S)-3-({(2S)-2-[5-tert-butyl-3-{[(4-methyl-1,2,5-oxadiazol-3-yl)methyl]amino}-2-oxopyrazin-1(2H)-yl]butanoyl}amino)-5-[methyl(pentyl)amino]-4-oxopentanoic acid] | minimal impact on caspase-3 cleavage except at the highest concentration | 
COc1ccc(I)cc1CC(=O)N[C@H](C(=O)NC(CC(=O)O)C(=O)CF)C(C)C (stereo partly drawn) [[^125I]-M808, 5-fluoro-3-({N-[(5-iodo-2-methoxyphenyl)acetyl]-L-valyl}amino)-4-oxopentanoic acid] |  | covalently bound
